The supplement of paper PMC10307832

Key:
Experiment in all cases: relative viability (nuclei count vs DMSO), 5 days (fraction); higher = more cells survive
[1] = compound: COc1cc2nccc(Oc3ccc(NC(=O)C4(C(=O)Nc5ccc(F)cc5)CC4)cc3)c2cc1OC [Cabozantinib] + N=C(N)NC(=N)NCCc1ccccc1 [Phenformin] (partner 250 µM)
Procedure, shortened: (§1)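 Values are medians from duplicate plates. Each reflects relative viability, defined as the nuclei count of treated wells over that of vehicle wells. Lung cancer cell lines in 1536-well plates were pin-tool dosed one day after seeding with one drug alone or with a fixed anchor-drug dose plus five library-drug doses (not always all listed) in √10 steps, then fixed, stained and imaged at 4× after 5 days.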

[2] = compound: COc1cc2nccc(Oc3ccc(NC(=O)C4(C(=O)Nc5ccc(F)cc5)CC4)cc3)c2cc1OC [Cabozantinib] + C[C@]1(O)C[C@@H](c2nc(-c3ccc4ccc(-c5ccccc5)nc4c3)c3c(N)nccn32)C1 [Linsitinib] (partner 1 µM)
Procedure, shortened: as §1

Kobe2602 + Tozasertib = compound: C1=CC(=CC=C1NC(=S)NNC2=C(C=C(C=C2[N+](=O)[O-])C(F)(F)F)[N+](=O)[O-])F [Kobe2602] + Cc1cc(Nc2cc(N3CCN(C)CC3)nc(Sc3ccc(NC(=O)C4CC4)cc3)n2)n[nH]1 [Tozasertib] (partner 0.1 µM)
Procedure, shortened: as §1

Kobe2602 + Olaparib = compound: C1=CC(=CC=C1NC(=S)NNC2=C(C=C(C=C2[N+](=O)[O-])C(F)(F)F)[N+](=O)[O-])F [Kobe2602] + O=C(c1cc(Cc2n[nH]c(=O)c3ccccc23)ccc1F)N1CCN(C(=O)C2CC2)CC1 [Olaparib] (partner 8 µM)
Procedure, shortened: as §1

| Cell Line | relative viability ([1]; first compound 0.02 µM) | relative viability ([1]; first compound 0.06325 µM) | relative viability ([1]; first compound 0.2 µM) | relative viability ([1]; first compound 0.6325 µM) | relative viability ([1]; first compound 2 µM) | relative viability ([2]; first compound 0.02 µM) | relative viability ([2]; first compound 0.06325 µM) | relative viability ([2]; first compound 0.2 µM) | relative viability ([2]; first compound 0.6325 µM) | relative viability ([2]; first compound 2 µM) | relative viability (Kobe2602 + Tozasertib; first compound 0.2 µM) | relative viability (Kobe2602 + Tozasertib; first compound 0.6325 µM) | relative viability (Kobe2602 + Tozasertib; first compound 2 µM) | relative viability (Kobe2602 + Tozasertib; first compound 6.325 µM) | relative viability (Kobe2602 + Tozasertib; first compound 20 µM) | relative viability (Kobe2602 + Olaparib; first compound 0.2 µM) | relative viability (Kobe2602 + Olaparib; first compound 0.6325 µM) | relative viability (Kobe2602 + Olaparib; first compound 2 µM) | relative viability (Kobe2602 + Olaparib; first compound 6.325 µM) | relative viability (Kobe2602 + Olaparib; first compound 20 µM) |
| --- | --- | --- | --- | --- | --- | --- | --- | --- | --- | --- | --- | --- | --- | --- | --- | --- | --- | --- | --- | --- |
| NCI-H1975 | 0.408 | 0.462 | 0.386 | 0.423 | 0.399 | 1 | 1.09 | 0.895 | 0.965 | 0.898 | 0.614 | 0.432 | 0.511 | 0.689 | 0.355 | 0.763 | 0.78 | 0.766 | 0.722 | 0.755 |
| NCI-H2023 | 0.444 | 0.463 | 0.337 | 0.26 | 0.236 | 0.637 | 0.76 | 0.465 | 0.459 | 0.316 | 0.253 | 0.326 | 0.244 | 0.175 | 0.157 | 0.496 | 0.566 | 0.511 | 0.446 | 0.166 |
| ChaGo-K-1 | 0.424 | 0.519 | 0.469 | 0.513 | 0.501 |  |  |  |  |  | 0.251 | 0.244 | 0.226 | 0.227 | 0.245 | 0.362 | 0.406 | 0.4 | 0.355 | 0.332 |
| COR-L 105 | 0.387 | 0.477 |  | 0.581 | 0.481 | 0.945 | 1.04 |  | 0.937 | 0.839 | 0.364 | 0.322 | 0.371 | 0.401 | 0.366 | 0.658 | 0.718 | 0.425 | 0.588 | 0.686 |
| SK-MES-1 | 0.701 | 0.688 | 0.705 | 0.667 | 0.631 | 1.12 | 1.1 | 0.988 | 1.12 | 1.06 | 0.822 | 0.878 | 0.791 | 0.737 | 0.55 | 0.674 | 0.643 | 0.635 | 0.551 | 0.281 |
| A549 | 0.407 | 0.173 | 0.215 | 0.156 | 0.147 | 0.621 | 0.641 | 0.481 | 0.534 | 0.373 |  |  |  |  |  | 0.45 | 0.484 | 0.281 | 0.315 | 0.513 |
| NCI-H23 |  | 0.938 | 0.8 | 0.825 | 0.814 |  | 0.687 | 0.561 | 0.473 | 0.48 | 0.464 | 0.342 | 0.308 | 0.829 | 0.236 | 0.367 | 0.355 | 0.249 | 0.277 | 0.313 |
| NCI-H1993 | 0.448 | 0.521 | 0.511 | 0.473 | 0.476 | 0.776 | 0.722 | 0.712 | 0.69 | 0.718 | 0.515 | 0.549 | 0.573 | 0.53 | 0.56 | 0.853 | 1.07 | 0.922 | 0.918 | 1.26 |
| Calu-6 |  |  |  |  |  | 1.06 | 0.975 | 1.01 | 0.871 | 0.881 |  |  |  |  |  | 0.581 | 0.589 | 0.606 | 0.631 | 0.514 |
